Test results published in the supplement of paper PMC10307832.

Legend:
Experiment in all cases: relative viability (nuclei count vs DMSO), 5 days (fraction); higher = more cells survive
AZ628 + AZD7762 = compound: CC1=C(C=C(C=C1)NC(=O)C2=CC(=CC=C2)C(C)(C)C#N)NC3=CC4=C(C=C3)N=CN(C4=O)C [AZ628] + NC(=O)Nc1cc(-c2cccc(F)c2)sc1C(=O)N[C@H]1CCCNC1 [AZD7762] (partner 0.2 µM)
Method in brief: (§1)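 The day after seeding in 1536-well plates, lung cancer cell lines were treated by pin tool with a single drug, or with a fixed anchor-drug dose together with five library-drug doses (not always all listed) in √10 steps. After 5 days, a combined fix-and-stain solution (final 0.05% Triton X-100, 1% formaldehyde, 1 ug/ml Hoechst) was added. Nuclei counted on 4× images gave relative viability as treated counts over vehicle counts, reported as the median of duplicate plates.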

QS11 + Trametinib = compound: C1CC2=C(C1)C=C(C=C2)OC3=NC(=C4C(=N3)N(C=N4)CC5=CC=C(C=C5)C6=CC=CC=C6)N[C@@H](CC7=CC=CC=C7)CO [QS11] + CC(=O)Nc1cccc(-n2c(=O)n(C3CC3)c(=O)c3c(Nc4ccc(I)cc4F)n(C)c(=O)c(C)c32)c1 [Trametinib] (partner 0.02 µM)
Method in brief: as §1

AZ628 + Luminespib = compound: CC1=C(C=C(C=C1)NC(=O)C2=CC(=CC=C2)C(C)(C)C#N)NC3=CC4=C(C=C3)N=CN(C4=O)C [AZ628] + CCNC(=O)c1noc(-c2cc(C(C)C)c(O)cc2O)c1-c1ccc(CN2CCOCC2)cc1 [Luminespib] (partner 0.01 µM)
Method in brief: as §1

QS11 + Pemetrexed = compound: C1CC2=C(C1)C=C(C=C2)OC3=NC(=C4C(=N3)N(C=N4)CC5=CC=C(C=C5)C6=CC=CC=C6)N[C@@H](CC7=CC=CC=C7)CO [QS11] + Nc1nc2[nH]cc(CCc3ccc(C(=O)N[C@@H](CCC(=O)O)C(=O)O)cc3)c2c(=O)[nH]1 [Pemetrexed] (partner 0.2 µM)
Method in brief: as §1

## HARA
AZ628 + AZD7762; first compound 0.08 µM
  relative viability: 0.299
AZ628 + AZD7762; first compound 0.253 µM
  relative viability: 0.216
AZ628 + AZD7762; first compound 0.8 µM
  relative viability: 0.272
AZ628 + AZD7762; first compound 2.53 µM
  relative viability: 0.363
AZ628 + AZD7762; first compound 8 µM
  relative viability: 0.228
QS11 + Trametinib; first compound 0.08 µM
  relative viability: 0.652
QS11 + Trametinib; first compound 0.8 µM
  relative viability: 0.562
QS11 + Trametinib; first compound 2.53 µM
  relative viability: 0.48
QS11 + Trametinib; first compound 8 µM
  relative viability: 0.634
AZ628 + Luminespib; first compound 0.08 µM
  relative viability: 0.463
AZ628 + Luminespib; first compound 0.253 µM
  relative viability: 0.726
AZ628 + Luminespib; first compound 0.8 µM
  relative viability: 0.548
AZ628 + Luminespib; first compound 2.53 µM
  relative viability: 0.779
AZ628 + Luminespib; first compound 8 µM
  relative viability: 0.39
QS11 + Pemetrexed; first compound 0.08 µM
  relative viability: 0.251
QS11 + Pemetrexed; first compound 0.8 µM
  relative viability: 0.215
QS11 + Pemetrexed; first compound 2.53 µM
  relative viability: 0.244
QS11 + Pemetrexed; first compound 8 µM
  relative viability: 0.256

## HCC-15
AZ628 + AZD7762; first compound 0.08 µM
  relative viability: 1.16
AZ628 + AZD7762; first compound 0.253 µM
  relative viability: 1.07
AZ628 + AZD7762; first compound 0.8 µM
  relative viability: 1.08
AZ628 + AZD7762; first compound 2.53 µM
  relative viability: 1.01
AZ628 + AZD7762; first compound 8 µM
  relative viability: 0.894
QS11 + Trametinib; first compound 0.08 µM
  relative viability: 0.307
QS11 + Trametinib; first compound 0.253 µM
  relative viability: 0.388
QS11 + Trametinib; first compound 0.8 µM
  relative viability: 0.335
QS11 + Trametinib; first compound 2.53 µM
  relative viability: 0.319
QS11 + Trametinib; first compound 8 µM
  relative viability: 0.314
AZ628 + Luminespib; first compound 0.08 µM
  relative viability: 0.262
AZ628 + Luminespib; first compound 0.253 µM
  relative viability: 0.304
AZ628 + Luminespib; first compound 0.8 µM
  relative viability: 0.478
AZ628 + Luminespib; first compound 2.53 µM
  relative viability: 0.361
AZ628 + Luminespib; first compound 8 µM
  relative viability: 0.282
QS11 + Pemetrexed; first compound 0.08 µM
  relative viability: 0.213
QS11 + Pemetrexed; first compound 0.253 µM
  relative viability: 0.232
QS11 + Pemetrexed; first compound 0.8 µM
  relative viability: 0.223
QS11 + Pemetrexed; first compound 2.53 µM
  relative viability: 0.274
QS11 + Pemetrexed; first compound 8 µM
  relative viability: 0.227

## HCC-44
AZ628 + AZD7762; first compound 0.08 µM
  relative viability: 1.01
AZ628 + AZD7762; first compound 0.253 µM
  relative viability: 0.945
AZ628 + AZD7762; first compound 0.8 µM
  relative viability: 1.08
AZ628 + AZD7762; first compound 2.53 µM
  relative viability: 1.04
AZ628 + AZD7762; first compound 8 µM
  relative viability: 1.24
QS11 + Trametinib; first compound 0.08 µM
  relative viability: 1.19
QS11 + Trametinib; first compound 0.253 µM
  relative viability: 0.908
QS11 + Trametinib; first compound 0.8 µM
  relative viability: 0.599
QS11 + Trametinib; first compound 2.53 µM
  relative viability: 1.02
QS11 + Trametinib; first compound 8 µM
  relative viability: 1.02
AZ628 + Luminespib; first compound 0.08 µM
  relative viability: 1.29
AZ628 + Luminespib; first compound 0.253 µM
  relative viability: 1.08
AZ628 + Luminespib; first compound 0.8 µM
  relative viability: 1.13
AZ628 + Luminespib; first compound 2.53 µM
  relative viability: 0.945
AZ628 + Luminespib; first compound 8 µM
  relative viability: 0.767
QS11 + Pemetrexed; first compound 0.08 µM
  relative viability: 0.72
QS11 + Pemetrexed; first compound 0.253 µM
  relative viability: 0.581
QS11 + Pemetrexed; first compound 0.8 µM
  relative viability: 0.416
QS11 + Pemetrexed; first compound 2.53 µM
  relative viability: 0.675
QS11 + Pemetrexed; first compound 8 µM
  relative viability: 0.659

## HCC-827
AZ628 + AZD7762; first compound 0.08 µM
  relative viability: 0.258
AZ628 + AZD7762; first compound 0.253 µM
  relative viability: 0.177
AZ628 + AZD7762; first compound 0.8 µM
  relative viability: 0.17
AZ628 + AZD7762; first compound 2.53 µM
  relative viability: 0.217
AZ628 + AZD7762; first compound 8 µM
  relative viability: 0.166
QS11 + Trametinib; first compound 0.08 µM
  relative viability: 0.507
QS11 + Trametinib; first compound 0.253 µM
  relative viability: 0.559
QS11 + Trametinib; first compound 0.8 µM
  relative viability: 0.595
QS11 + Trametinib; first compound 2.53 µM
  relative viability: 0.698
QS11 + Trametinib; first compound 8 µM
  relative viability: 0.557
AZ628 + Luminespib; first compound 0.08 µM
  relative viability: 0.698
AZ628 + Luminespib; first compound 0.253 µM
  relative viability: 0.5
AZ628 + Luminespib; first compound 0.8 µM
  relative viability: 0.588
AZ628 + Luminespib; first compound 2.53 µM
  relative viability: 0.701
AZ628 + Luminespib; first compound 8 µM
  relative viability: 0.623
QS11 + Pemetrexed; first compound 0.08 µM
  relative viability: 0.262
QS11 + Pemetrexed; first compound 0.253 µM
  relative viability: 0.274
QS11 + Pemetrexed; first compound 0.8 µM
  relative viability: 0.258
QS11 + Pemetrexed; first compound 2.53 µM
  relative viability: 0.257
QS11 + Pemetrexed; first compound 8 µM
  relative viability: 0.35
